From patent US10308639B2, “Phosphatidylinositol 3-kinase inhibitors” (Gilead Sciences, Inc., priority 2014, dated 2019) come the findings set out here.

Each structure is given as a SMILES string. Like-named read-outs stand apart in the source and are kept apart here.

Format in all cases: biochemical
In one assay the target is T1, PI3Kβ (Homo sapiens, UniProt P42338).
T1 construct: made in house
Put plainly: TR-FRET enzymatic activity assay, PI3Kβ. Conditions: Table 2; TR-FRET, 2x Km ATP, 30 minutes at 25° C. (In general: Time-resolved FRET reads energy transfer from a long-lived donor to a nearby acceptor.)

The target in the next assay is T2, PI3Kγ (Homo sapiens, UniProt P48736).
T2 construct: made in house
T2 sequence (P48736 whole entry): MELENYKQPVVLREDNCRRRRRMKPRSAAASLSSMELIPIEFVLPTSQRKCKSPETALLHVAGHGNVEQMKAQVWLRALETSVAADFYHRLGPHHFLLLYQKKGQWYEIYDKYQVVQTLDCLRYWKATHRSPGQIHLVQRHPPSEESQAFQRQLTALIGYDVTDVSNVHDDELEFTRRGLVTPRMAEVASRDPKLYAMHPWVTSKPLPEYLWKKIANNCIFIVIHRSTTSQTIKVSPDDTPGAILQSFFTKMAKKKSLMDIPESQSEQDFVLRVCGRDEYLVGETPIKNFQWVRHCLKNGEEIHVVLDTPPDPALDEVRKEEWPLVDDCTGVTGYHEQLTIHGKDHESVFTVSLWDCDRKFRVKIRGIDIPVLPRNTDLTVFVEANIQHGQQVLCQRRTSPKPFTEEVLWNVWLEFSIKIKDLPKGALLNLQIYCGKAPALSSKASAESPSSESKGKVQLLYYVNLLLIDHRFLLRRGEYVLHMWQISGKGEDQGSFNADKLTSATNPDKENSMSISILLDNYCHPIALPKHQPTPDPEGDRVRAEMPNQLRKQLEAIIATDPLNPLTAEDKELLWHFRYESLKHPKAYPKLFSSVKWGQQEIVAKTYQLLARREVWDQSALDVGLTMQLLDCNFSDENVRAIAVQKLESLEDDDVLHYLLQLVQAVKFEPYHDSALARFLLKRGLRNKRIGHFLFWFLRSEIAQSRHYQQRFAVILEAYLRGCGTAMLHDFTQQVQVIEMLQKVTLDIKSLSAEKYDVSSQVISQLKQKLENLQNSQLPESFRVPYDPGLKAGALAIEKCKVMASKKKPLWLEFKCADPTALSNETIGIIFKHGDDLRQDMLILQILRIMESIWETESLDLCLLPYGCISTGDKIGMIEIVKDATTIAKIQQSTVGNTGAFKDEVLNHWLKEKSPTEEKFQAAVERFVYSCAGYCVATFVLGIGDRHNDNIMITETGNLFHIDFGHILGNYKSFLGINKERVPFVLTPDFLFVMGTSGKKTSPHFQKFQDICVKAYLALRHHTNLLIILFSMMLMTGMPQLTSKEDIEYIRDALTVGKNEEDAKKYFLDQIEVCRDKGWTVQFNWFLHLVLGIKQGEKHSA
Put plainly: TR-FRET enzymatic activity assay, PI3Kγ. Conditions: read-out: PI3Kγ IC50. Put shortly: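 Compounds were profiled per isoform in a biochemical kinase reaction, with activity detected by time-resolved fluorescence resonance energy transfer.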

For another assay, the target named is T3, PI3Kδ (Homo sapiens, UniProt O00329).
T3 construct: made in house
T3 sequence (O00329 whole entry): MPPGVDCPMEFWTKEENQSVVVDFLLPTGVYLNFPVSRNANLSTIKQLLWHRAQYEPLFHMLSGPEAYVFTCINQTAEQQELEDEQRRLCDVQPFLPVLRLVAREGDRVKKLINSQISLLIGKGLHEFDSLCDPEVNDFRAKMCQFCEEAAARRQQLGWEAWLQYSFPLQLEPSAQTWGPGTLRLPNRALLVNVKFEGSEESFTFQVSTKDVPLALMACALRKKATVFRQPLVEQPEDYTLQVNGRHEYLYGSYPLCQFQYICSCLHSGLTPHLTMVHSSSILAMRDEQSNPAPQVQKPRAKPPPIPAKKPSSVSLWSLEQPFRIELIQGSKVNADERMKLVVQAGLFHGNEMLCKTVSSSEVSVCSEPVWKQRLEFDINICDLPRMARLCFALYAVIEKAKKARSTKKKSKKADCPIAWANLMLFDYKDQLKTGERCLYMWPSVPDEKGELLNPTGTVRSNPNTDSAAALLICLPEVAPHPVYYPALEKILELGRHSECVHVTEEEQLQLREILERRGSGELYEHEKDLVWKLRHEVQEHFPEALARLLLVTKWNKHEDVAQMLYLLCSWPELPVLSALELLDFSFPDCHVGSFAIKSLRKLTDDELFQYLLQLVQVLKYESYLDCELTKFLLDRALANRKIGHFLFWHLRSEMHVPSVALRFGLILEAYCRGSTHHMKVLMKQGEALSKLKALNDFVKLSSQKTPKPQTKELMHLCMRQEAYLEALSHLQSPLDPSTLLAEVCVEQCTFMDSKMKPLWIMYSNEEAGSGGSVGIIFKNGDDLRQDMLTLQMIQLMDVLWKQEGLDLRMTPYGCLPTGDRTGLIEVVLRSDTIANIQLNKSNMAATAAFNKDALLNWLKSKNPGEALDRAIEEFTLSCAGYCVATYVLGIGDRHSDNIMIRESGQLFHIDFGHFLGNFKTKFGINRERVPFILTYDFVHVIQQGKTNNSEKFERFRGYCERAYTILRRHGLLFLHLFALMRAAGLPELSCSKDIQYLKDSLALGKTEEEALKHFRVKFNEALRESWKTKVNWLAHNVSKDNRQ
T3 sequence (P27986 whole entry partner): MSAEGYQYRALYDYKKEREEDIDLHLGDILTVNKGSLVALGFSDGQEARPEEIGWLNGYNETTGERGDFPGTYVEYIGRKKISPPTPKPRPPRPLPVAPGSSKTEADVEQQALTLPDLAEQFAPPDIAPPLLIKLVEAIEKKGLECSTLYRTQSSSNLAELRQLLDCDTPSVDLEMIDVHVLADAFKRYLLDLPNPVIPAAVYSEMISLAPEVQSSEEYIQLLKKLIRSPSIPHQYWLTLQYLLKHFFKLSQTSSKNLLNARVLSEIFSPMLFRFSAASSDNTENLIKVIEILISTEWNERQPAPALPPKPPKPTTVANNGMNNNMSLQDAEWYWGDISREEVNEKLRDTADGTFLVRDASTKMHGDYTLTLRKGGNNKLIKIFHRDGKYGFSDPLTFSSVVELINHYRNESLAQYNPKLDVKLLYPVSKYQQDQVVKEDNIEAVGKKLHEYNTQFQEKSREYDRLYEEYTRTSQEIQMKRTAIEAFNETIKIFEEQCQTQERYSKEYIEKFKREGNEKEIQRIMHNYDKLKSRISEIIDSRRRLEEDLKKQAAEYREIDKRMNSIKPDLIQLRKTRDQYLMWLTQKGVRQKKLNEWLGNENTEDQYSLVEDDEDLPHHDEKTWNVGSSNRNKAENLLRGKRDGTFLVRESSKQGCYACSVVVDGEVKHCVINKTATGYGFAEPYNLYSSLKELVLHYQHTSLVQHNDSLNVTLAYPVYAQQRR
The assay can be described thus: TR-FRET enzymatic activity assay, PI3Kδ. Conditions: Table 2; TR-FRET, 2x Km ATP, 30 minutes at 25° C.

Setting [1] is: Table 2, TR-FRET, 2x Km ATP, 30 minutes at 25° C.

T1 sequence (P42338 whole entry): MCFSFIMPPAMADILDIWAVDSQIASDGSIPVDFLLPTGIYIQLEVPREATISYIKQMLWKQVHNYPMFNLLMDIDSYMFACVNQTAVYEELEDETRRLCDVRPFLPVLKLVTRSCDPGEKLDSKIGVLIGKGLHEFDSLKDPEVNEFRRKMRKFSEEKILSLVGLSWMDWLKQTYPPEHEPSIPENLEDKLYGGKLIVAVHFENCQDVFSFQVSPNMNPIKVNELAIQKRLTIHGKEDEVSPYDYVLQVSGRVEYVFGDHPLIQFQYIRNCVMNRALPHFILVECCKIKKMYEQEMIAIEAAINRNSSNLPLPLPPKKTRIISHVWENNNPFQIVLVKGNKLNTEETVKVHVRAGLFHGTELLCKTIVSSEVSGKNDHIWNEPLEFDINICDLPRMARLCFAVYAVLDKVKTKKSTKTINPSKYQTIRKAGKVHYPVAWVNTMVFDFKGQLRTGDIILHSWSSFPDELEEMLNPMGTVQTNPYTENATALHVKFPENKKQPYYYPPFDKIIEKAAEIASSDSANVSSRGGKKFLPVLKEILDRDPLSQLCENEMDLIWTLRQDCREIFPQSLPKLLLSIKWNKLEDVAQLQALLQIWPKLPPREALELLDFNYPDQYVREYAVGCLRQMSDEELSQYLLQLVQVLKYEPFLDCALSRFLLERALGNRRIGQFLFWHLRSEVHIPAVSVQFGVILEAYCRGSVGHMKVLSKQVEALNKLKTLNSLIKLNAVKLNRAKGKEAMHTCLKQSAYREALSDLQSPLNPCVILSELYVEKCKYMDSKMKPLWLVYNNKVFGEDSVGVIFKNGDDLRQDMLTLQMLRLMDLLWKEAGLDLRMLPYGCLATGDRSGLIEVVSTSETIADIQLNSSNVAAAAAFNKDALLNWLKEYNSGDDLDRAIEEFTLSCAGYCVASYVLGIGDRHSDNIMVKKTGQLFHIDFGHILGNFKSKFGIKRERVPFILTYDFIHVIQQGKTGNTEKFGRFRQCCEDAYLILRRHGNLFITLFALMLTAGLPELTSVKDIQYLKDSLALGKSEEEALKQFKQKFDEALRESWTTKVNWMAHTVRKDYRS
T1 sequence (P27986 whole entry partner): as the sequence (P27986 whole entry partner) above

With `CC[C@H](Nc1nc(Cl)nc2[nH]nc(C)c12)c1nc2c(Cl)ccc(Cl)c2c(=O)n1-c1cc[nH]n1` [Compound 88, (S)-5,8-dichloro-2-(1-((6-chloro-3-methyl-1H-pyrazolo[3,4-d]pyrimidin-4-yl)amino)propyl)-3-(1H-pyrazol-3-yl)quinazolin-4(3H)-one], the IC50 at PI3Kβ is 4200 nM; on PI3Kγ, > 10000 nM; against PI3Kδ, 2700 nM.

On to `Cc1n[nH]c2nc(Cl)nc(N[C@@H](C)c3nc4cccc(Cl)c4c(=O)n3-c3cc[nH]n3)c12` [Compound 89, (S)-5-chloro-2-(1-((6-chloro-3-methyl-1H-pyrazolo[3,4-d]pyrimidin-4-yl)amino)ethyl)-3-(1H-pyrazol-3-yl)quinazolin-4(3H)-one], for which the figures for the IC50 on PI3Kβ, on PI3Kγ and at PI3Kδ were 3100 nM, > 10000 nM and 1900 nM, respectively.

For the molecule `C[C@H](Nc1nc(N)nc2[nH]ncc12)c1nc2cccc(Cl)c2c(=O)n1-c1cc[nH]n1` [Compound 90, (S)-2-(1-((6-amino-1H-pyrazolo[3,4-d]pyrimidin-4-yl)amino)ethyl)-5-chloro-3-(1H-pyrazol-3-yl)quinazolin-4(3H)-one], the half-maximal inhibitory concentration (IC50) is 1800 nM against PI3Kβ, > 10000 nM on PI3Kγ and 830 nM on PI3Kδ.

As for `C[C@H](Nc1nc(Cl)nc2[nH]ncc12)c1nc2cccc(Cl)c2c(=O)n1-c1cc[nH]n1` [Compound 91, (S)-5-chloro-2-(1-((6-chloro-1H-pyrazolo[3,4-d]pyrimidin-4-yl)amino)ethyl)-3-(1H-pyrazol-3-yl)quinazolin-4(3H)-one], the IC50 against PI3Kβ was 3600 nM; on PI3Kγ it was > 10000 nM; on PI3Kδ, 2400 nM.

Regarding `C[C@H](Nc1nc(N)nc2[nH]nc(Br)c12)c1nc2cccc(Cl)c2c(=O)n1-c1cc[nH]n1` [Compound 92, (S)-2-(1-((6-amino-3-bromo-1H-pyrazolo[3,4-d]pyrimidin-4-yl)amino)ethyl)-5-chloro-3-(1H-pyrazol-3-yl)quinazolin-4(3H)-one], the IC50 on PI3Kβ came out at 10 nM; on PI3Kγ (setting [1]), 3800 nM; on PI3Kδ, 6 nM.

For the molecule `CC[C@H](Nc1nc(N)nc(C)c1C#N)c1nc2c(C#N)cccc2c(=O)n1-c1cn[nH]c1` [Compound 93, (S)-2-(1-((2-amino-5-cyano-6-methylpyrimidin-4-yl)amino)propyl)-4-oxo-3-(1H-pyrazol-4-yl)-3,4-dihydroquinazoline-8-carbonitrile], the half-inhibitory concentration (IC50) worked out at 16 nM at PI3Kβ, 3800 nM on PI3Kγ (setting [1]) and 9 nM on PI3Kδ.

On to `CC[C@H](Nc1ncnc2ccc(Cl)nc12)c1nc2c(C#N)cccc2c(=O)n1-c1cn[nH]c1` [Compound 94, (S)-2-(1-((6-chloropyrido[3,2-d]pyrimidin-4-yl)amino)propyl)-4-oxo-3-(1H-pyrazol-4-yl)-3,4-dihydroquinazoline-8-carbonitrile], for which the IC50 at PI3Kβ came to 100 nM; at PI3Kγ (setting [1]), 1500 nM; on PI3Kδ it was 8 nM.

For `CC[C@H](Nc1nc(N)nc(N)c1Cl)c1nc2c(C#N)cccc2c(=O)n1-c1cn[nH]c1` [Compound 95, (S)-2-(1-((2,6-diamino-5-chloropyrimidin-4-yl)amino)propyl)-4-oxo-3-(1H-pyrazol-4-yl)-3,4-dihydroquinazoline-8-carbonitrile], the figures for the IC50 on PI3Kβ, on PI3Kγ and against PI3Kδ were 1700 nM, > 10000 nM and 300 nM, respectively.

With `CC[C@H](Nc1nc(N)nc(Cl)c1C#N)c1nc2c(C#N)cccc2c(=O)n1-c1cc[nH]n1` [Compound 96, (S)-2-(1-((2-amino-6-chloro-5-cyanopyrimidin-4-yl)amino)propyl)-4-oxo-3-(1H-pyrazol-3-yl)-3,4-dihydroquinazoline-8-carbonitrile], the IC50 was 22 nM against PI3Kβ, > 10000 nM on PI3Kγ and 12 nM against PI3Kδ.

In the case of `CC[C@H](Nc1nc(N)nc(N)c1C#N)c1nc2cccc(C#N)c2c(=O)n1-c1cc[nH]n1` [Compound 97, (S)-2-(1-((2,6-diamino-5-cyanopyrimidin-4-yl)amino)propyl)-4-oxo-3-(1H-pyrazol-3-yl)-3,4-dihydroquinazoline-5-carbonitrile], the IC50 at PI3Kβ was 17 nM; at PI3Kγ (setting [1]), 3700 nM; against PI3Kδ it was 16 nM.

Regarding `CC[C@H](Nc1nc(N)nc(N)c1C#N)c1nc2cccc(Br)c2c(=O)n1-c1cc[nH]n1` [Compound 98, (S)-2,4-diamino-6-((1-(5-bromo-4-oxo-3-(1H-pyrazol-3-yl)-3,4-dihydroquinazolin-2-yl)propyl)amino)pyrimidine-5-carbonitrile], the IC50 was found to be 0.3 nM against PI3Kβ, 110 nM on PI3Kγ (setting [1]) and 0.6 nM on PI3Kδ.

Take `CC[C@H](Nc1nc(N)nc(N)c1C#N)c1nc2cccc(Br)c2c(=O)n1-c1cn[nH]c1` [Compound 99, (S)-2,4-diamino-6-((1-(5-bromo-4-oxo-3-(1H-pyrazol-4-yl)-3,4-dihydroquinazolin-2-yl)propyl)amino)pyrimidine-5-carbonitrile]: the IC50 against PI3Kβ turned out to be 0.8 nM; at PI3Kγ (setting [1]), 93 nM; against PI3Kδ it was 1 nM.

Regarding `CC[C@H](Nc1ncnc2scnc12)c1nc2cccc(Br)c2c(=O)n1-c1cn[nH]c1` [Compound 100, (S)-5-bromo-3-(1H-pyrazol-4-yl)-2-(1-(thiazolo[5,4-d]pyrimidin-7-ylamino)propyl)quinazolin-4(3H)-one], the IC50 against PI3Kβ was 22 nM; at PI3Kγ (setting [1]), 280 nM; at PI3Kδ, 4 nM.

Consider `CC[C@H](Nc1ncnc2scnc12)c1nc2cccc(Br)c2c(=O)n1-c1cc[nH]n1` [Compound 101, (S)-5-bromo-3-(1H-pyrazol-3-yl)-2-(1-(thiazolo[5,4-d]pyrimidin-7-ylamino)propyl)quinazolin-4(3H)-one], for which the results for the IC50 at PI3Kβ, on PI3Kγ (setting [1]) and against PI3Kδ were 1 nM, 960 nM and 0.5 nM, respectively.

In the case of `CC[C@H](Nc1nc(N)nc(N)c1C#N)c1nc2cccc(C#N)c2c(=O)n1-c1cn[nH]c1` [Compound 102, (S)-2-(1-((2,6-diamino-5-cyanopyrimidin-4-yl)amino)propyl)-4-oxo-3-(1H-pyrazol-4-yl)-3,4-dihydroquinazoline-5-carbonitrile], the IC50 against PI3Kβ was 82 nM; on PI3Kγ (setting [1]), 2500 nM; against PI3Kδ, 29 nM.

Consider `CC[C@H](Nc1ncnc2scnc12)c1nc2cccc(C#N)c2c(=O)n1-c1cn[nH]c1` [Compound 103, (S)-4-oxo-3-(1H-pyrazol-4-yl)-2-(1-(thiazolo[5,4-d]pyrimidin-7-ylamino)propyl)-3,4-dihydroquinazoline-5-carbonitrile], for which the IC50 against PI3Kβ stood at 620 nM; at PI3Kγ (setting [1]) it was 8700 nM; against PI3Kδ, 100 nM.

Turning to `C[C@H](Nc1ncnc2scnc12)c1nc2cccc(Cl)c2c(=O)n1-c1n[nH]cc1Br` [Compound 104, (S)-3-(4-bromo-1H-pyrazol-3-yl)-5-chloro-2-(1-(thiazolo[5,4-d]pyrimidin-7-ylamino)ethyl)quinazolin-4(3H)-one], the IC50 on PI3Kβ worked out at 61 nM; at PI3Kγ (setting [1]) it was 500 nM; at PI3Kδ it was 2 nM.

With `N#Cc1c(N)nc(N)nc1N[C@@H](c1ccccc1)c1nc2cccc(Cl)c2c(=O)n1-c1cc[nH]n1` [Compound 105, (S)-2,4-diamino-6-(((5-chloro-4-oxo-3-(1H-pyrazol-3-yl)-3,4-dihydroquinazolin-2-yl)(phenyl)methyl)amino)pyrimidine-5-carbonitrile], the IC50 at PI3Kβ was 5 nM; at PI3Kγ (setting [1]), 680 nM; against PI3Kδ it was 3 nM.

As a reminder, the IC50 is the point on the concentration scale where inhibition reaches its midpoint.
